# Reference: patent US20230143604A1, “QW DOSING OF GIP RECEPTOR AGONIST PEPTIDE COMPOUNDS AND USES THEREOF” (TAKEDA PHARMACEUTICAL COMPANY LIMITED, priority 2020, published 2023)
# Starred links: 1 amine or outer side, 2 acyl side, 3 side chain; linkers in the order of their positions; H or OH if unused. Non-standard residues stand in square brackets, D forms with d. Residues, ends and D or L forms follow the SMILES beside them. Groups on a side chain read outwards from the residue. *: point of attachment. C18 diacid = O=C(O)CCCCCCCCCCCCCCCCC(=O)*; C17 diacid = O=C(O)CCCCCCCCCCCCCCCC(=O)*; γGlu = O=C(O)[C@H](CCC(=O)[*:2])N[*:1]; NMeY = CN[C@@H](Cc1ccc(O)cc1)C(=O)O; AEEA = NCCOCCOCC(=O)O; Aib = CC(C)(N)C(=O)O
# Experiments:
# [1] = target: T1, human GLP-1R (Homo sapiens, UniProt P43220); assay: Human GLP1R agonist activity, intracellular cAMP accumulation; format: cell-based; conditions: Human GLP1R cAMP EC50, HEK293T (nM), HEK-293T cells overexpressing human GLP-1R, 1 hr
# T1 construct: HEK-293T cells overexpressing full-length human GLP-1R; FLAG (N); host or cells: HEK-293T
# T1 sequence (P43220 24-463): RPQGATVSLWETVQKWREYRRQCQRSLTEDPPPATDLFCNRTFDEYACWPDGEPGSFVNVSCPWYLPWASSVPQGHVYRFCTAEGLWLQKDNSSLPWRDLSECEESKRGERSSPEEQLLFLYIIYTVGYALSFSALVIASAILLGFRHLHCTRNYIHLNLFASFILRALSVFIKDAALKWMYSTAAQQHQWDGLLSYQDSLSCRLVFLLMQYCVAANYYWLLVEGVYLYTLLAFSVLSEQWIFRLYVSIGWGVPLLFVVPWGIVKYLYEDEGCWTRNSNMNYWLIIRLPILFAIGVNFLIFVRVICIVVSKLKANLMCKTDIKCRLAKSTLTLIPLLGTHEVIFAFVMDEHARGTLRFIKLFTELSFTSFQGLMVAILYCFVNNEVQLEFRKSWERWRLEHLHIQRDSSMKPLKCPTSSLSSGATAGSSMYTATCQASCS
# How it was run: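 cAMP accumulation is measured by HTRF after a 1 hr, room-temperature, dark exposure of thawed cells (4×10^5 cells/mL in Krebs Ringer buffer) to compound. Activity is scaled between DMSO alone as 0% and 1 nm GLP-1 as 100%.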
# [2] = system: C57BL/6J mice; assay: Oral glucose tolerance test (OGTT); format: in vivo; conditions: 3 nmol/kg s.c., 24 hours before glucose loading
# How it was run: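 Peptide or vehicle given s.c. at 0.1, 0.3, 3 or 10 nmol/kg (peptide-dependent), 24 h before oral 50% dextrose at 5 ml/kg unless stated otherwise. Blood glucose read at 0, 15, 30 and 60 min. % inhibition = (1−(AUC cpd−AUC naïve)/(AUC veh−AUC naïve))×100.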
# [3] = Human plasma protein binding (PPB); format: in vitro ADME
# Method: Stock solutions: (1000 μM) of the peptides are prepared in DMSO.
# Human plasma (mixed gender; containing K2-EDTA as anti-coagulant; pre-adjusted to pH 7.4—NB alternative species may be used) is spiked individually with each test peptide (1000 nmol/L), sampled for analysis and then incubated (n=4) at 37° C. in a water bath for 30 minutes. Following the incubation period, the plasma is sampled for analysis, then transferred to ultracentrifugation tubes and centrifuged (n=3) at […] and 4° C. for 3 hours, after which the supernatant is sampled for analysis. An additional aliquot of the supernatant is taken at the end of the centrifugation period to determine the total protein concentration. An aliquot of the incubated plasma will be stored at 4° C. for 3 hours and then sampled for analysis. At the point of sampling, all samples are matrix-matched, treated with ice-cold acetonitrile/methanol (4:1 (vfv)) containing internal standard, centrifuged al 2000 g and 4° C. for 10 minutes and stored prior to LC-MS/MS analysis. An appropriate positive control compound control will be incubated and centrifuged in parallel; control plasma is also centrifuged to generate samples for matrix-matching. Fraction unbound in plasma (Fuplasma) values is determined by comparison of the analyte response in plasma to the analyte response in the supernatant, determined via peak area response ratios.
# The samples are analyzed by LC-MS/MS using a 6500 (or equivalent) triple quadrupole mass spectrometer (AB Sciex) coupled to an appropriate Liquid Chromatography (LC) system. Protein binding and stability values are determined via peak area ratios using multiple reaction monitoring (MRM) parameters following compound optimisation. Multiple reaction monitoring (MRM) is a highly sensitive method of targeted mass spectrometry (MS) that can be used to selectively detect and quantify peptides based on the screening of specified precursor peptide-to-fragment ion transitions.
# [4] = Dog plasma protein binding (PPB); format: in vitro ADME; conditions: pH 7.4; fraction unbound; dog serum; read-out: Dog PPB (FUplasma)
# Source text: Dog PPB values presented below are obtained essentially as described for Human PPB samples, with the difference being that dog serum is used instead of human serum. Table 10 is provided with the values of (Fu,plasma) as fraction unbound expressed as a percentage compared to the percent bound. i.e. if the value is 0.0123, then the fraction unbound is […], which is 1.23% of the peptide is unbound and 98.77% is bound in plasma. Methods and analysis for performing the dog PPB protocol and results are the same as noted herein as for the Human PPB protocol and analysis.
# [5] = physchem
# How it was run: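 Solubility at pH 7.4 determined by stepwise addition of 200 mM phosphate buffer in 100 μL increments to 3 mg peptide, mixing briefly each time, until no insoluble material remained, then measured by liquid chromatography.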
# [6] = Pharmacokinetics in dog after IV and SC dosing; conditions: in vivo
# Method: Pharmacokinetic (PK) were conducted in dog in order to determine the half-life after IV and SC dosing. The peptide was dissolved in 10% DMSO/0.09% Polysorbate/PBS pH 7.4 to a concentration of 3 nmol/mL and the animal were dose with a volume of 1 mL/kg SC or IV. Blood sample were collected at 0, 0.033, 0.083, 0.25, 0.5, 1, 2, 4, 6, 8, 12, 24, 48, 72, 96, 120, 168, 336 hours for IV dosing and 0.25, 0.5, 1, 2, 4, 6, 8, 12, 24, 48, 72, 96, 120, 168, 336 for SC dosing, EDTA-K2 was used as anticoagulant. The plasma concentration of the peptide was measured using LCMS. Allometric scaling of lipidated peptide pharmacokinetics including T1/2 and MRT is known in the art for rodent to dog and mini pig and to humans. […] See for example, Discovery and Development of Liraglutide and Semaglutide. Knudsen, L. B.; Lau, J. Frontiers in Endocrinology, 2019, vol 10, Article 155.
# [7] = fraction unbound, human plasma, 1000 nmol/L peptide, ultracentrifugation
# [8] = both sexes, pH 7.4, fraction unbound, human plasma, 1000 nmol/L peptide, ultracentrifugation, read-out: Human PPB (FUplasma)
smiles,measurement,setting,value
CC[C@H](C)[C@H](NC(=O)[C@H](CO)NC(=O)[C@H](Cc1ccc(O)cc1)NC(=O)[C@H](CC(=O)O)NC(=O)[C@H](CO)NC(=O)[C@@H](NC(=O)[C@H](Cc1ccccc1)NC(=O)[C@@H](NC(=O)CNC(=O)[C@H](CCC(=O)O)NC(=O)C(C)(C)NC(=O)[C@H](Cc1ccc(O)cc1)NC)[C@@H](C)O)[C@@H](C)CC)C(=O)N[C@@H](C)C(=O)N[C@@H](CCCCNC(=O)CNC(=O)CNC(=O)CNC(=O)CNC(=O)CNC(=O)CCCCCCCCCCCCCCCCCCC(=O)O)C(=O)N[C@@H](CC(=O)O)C(=O)N[C@@H](CCCNC(=N)N)C(=O)NC(C)(C)C(=O)N[C@@H](C)C(=O)N[C@@H](CCC(N)=O)C(=O)NC(C)(C)C(=O)N[C@@H](CC(N)=O)C(=O)N[C@@H](Cc1ccccc1)C(=O)N[C@H](C(=O)N[C@@H](CC(N)=O)C(=O)N[C@@H](Cc1c[nH]c2ccccc12)C(=O)N[C@@H](CC(C)C)C(=O)N[C@@H](CC(C)C)C(=O)N[C@@H](C)C(=O)N[C@@H](CCC(N)=O)C(=O)N[C@@H](CO)C(=O)N1CCC[C@H]1C(=O)N[C@@H](CO)C(=O)N[C@@H](CO)C(=O)NCC(=O)N[C@@H](C)C(=O)N1CCC[C@H]1C(=O)N1CCC[C@H]1C(=O)N1CCC[C@H]1C(=O)N[C@@H](CO)C(=O)O)C(C)C [Compound 40],EC50,[1],5.6 nM
same,Oral Glucose Tolerance Test Percent decrease in blood glucose AUC (%) over 60 mins,[2],102% (3 nmol/kg)
same,Human PPB (FUplasma),[3]; [7],<0.002
same,"fraction unbound at 30 min, 1000 nmol/L",[4],0.0004
"CC[C@H](C)[C@H](NC(=O)[C@H](CO)NC(=O)[C@H](Cc1ccc(O)cc1)NC(=O)[C@H](CC(=O)O)NC(=O)[C@H](CO)NC(=O)[C@@H](NC(=O)[C@H](Cc1ccccc1)NC(=O)[C@@H](NC(=O)CNC(=O)[C@H](CCC(=O)O)NC(=O)C(C)(C)NC(=O)[C@H](Cc1ccc(O)cc1)NC)[C@@H](C)O)[C@@H](C)CC)C(=O)N[C@@H](C)C(=O)N[C@@H](CC(C)C)C(=O)N[C@@H](CC(=O)O)C(=O)N[C@@H](CCCNC(=N)N)C(=O)NC(C)(C)C(=O)N[C@@H](C)C(=O)N[C@@H](CCC(N)=O)C(=O)NC(C)(C)C(=O)N[C@@H](CCCCNC(=O)COCCOCCNC(=O)COCCOCCNC(=O)CC[C@H](NC(=O)CC[C@H](NC(=O)CCCCCCCCCCCCCCCCC(=O)O)C(=O)O)C(=O)O)C(=O)N[C@@H](Cc1ccccc1)C(=O)N[C@H](C(=O)N[C@@H](CC(N)=O)C(=O)N[C@@H](Cc1c[nH]c2ccccc12)C(=O)N[C@@H](CC(C)C)C(=O)N[C@@H](CC(C)C)C(=O)N[C@@H](C)C(=O)N[C@@H](CCC(N)=O)C(=O)N[C@@H](CCCCN)C(=O)NCC(=O)O)C(C)C [Compound 41, Me-Y-Aib-E-G-T-F-I-S-D-Y-S-I-A-L-D-R-Aib-A-Q-Aib-Km-F-V-N-W-L-L-A-Q-K-G-OH] (H-[NMeY][Aib]EGTFISDYSIALDR[Aib]AQ[Aib]K([AEEA-AEEA-γGlu-γGlu-C18 diacid])FVNWLLAQKG-OH)",Human PPB (FUplasma),[3]; [7],<0.002
same,free unbound peptide in human plasma (in words),[3]; judged for once per week (QW) dosing,optimum free unbound peptide
same,fraction unbound,[4],0.0007
same,solubility,[5]; pH 7.4,≥ 15 mg/mL
same,half-life,"[6]; IV 3 nmol/kg, read-out: IV T½ (converted)",115 h
same,MRT last,"[6]; SC 3 nmol/kg, read-out: SC MRT 0-last",119 h
CC[C@H](C)[C@H](NC(=O)[C@H](CO)NC(=O)[C@H](Cc1ccc(O)cc1)NC(=O)[C@H](CC(=O)O)NC(=O)[C@H](CO)NC(=O)[C@@H](NC(=O)[C@H](Cc1ccccc1)NC(=O)[C@@H](NC(=O)CNC(=O)[C@H](CCC(=O)O)NC(=O)C(C)(C)NC(=O)[C@H](Cc1ccc(O)cc1)NC)[C@@H](C)O)[C@@H](C)CC)C(=O)N[C@@H](C)C(=O)N[C@@H](CC(C)C)C(=O)N[C@@H](CC(=O)O)C(=O)N[C@@H](CCCNC(=N)N)C(=O)NC(C)(C)C(=O)N[C@@H](C)C(=O)N[C@@H](CCC(N)=O)C(=O)NC(C)(C)C(=O)N[C@@H](CCCCNC(=O)COCCOCCNC(=O)COCCOCCNC(=O)CC[C@H](NC(=O)CC[C@H](NC(=O)CCCCCCCCCCCCCCCCC(=O)O)C(=O)O)C(=O)O)C(=O)N[C@@H](Cc1ccccc1)C(=O)N[C@H](C(=O)N[C@@H](CC(N)=O)C(=O)N[C@@H](Cc1c[nH]c2ccccc12)C(=O)N[C@@H](CC(C)C)C(=O)N[C@@H](CC(C)C)C(=O)N[C@@H](C)C(=O)N[C@@H](CCC(N)=O)C(=O)N[C@@H](CCCNC(=N)N)C(=O)NCC(=O)O)C(C)C [Compound 37] (H-[NMeY][Aib]EGTFISDYSIALDR[Aib]AQ[Aib]K([AEEA-AEEA-γGlu-γGlu-C18 diacid])FVNWLLAQRG-OH),fraction unbound,[3]; [8],0.001
same,fraction unbound,[4],0.0012
same,solubility,[5]; pH 7.4,≥ 15 mg/mL
same,solubility,"[5]; pH 7.4, aqueous buffer",≥ 30 mg/mL
CC[C@H](C)[C@H](NC(=O)[C@H](Cc1ccccc1)NC(=O)[C@@H](NC(=O)CNC(=O)[C@H](CCC(=O)O)NC(=O)C(C)(C)NC(=O)[C@H](Cc1ccc(O)cc1)NC)[C@@H](C)O)C(=O)N[C@@H](CO)C(=O)N[C@@H](CC(=O)O)C(=O)N[C@@H](Cc1ccc(O)cc1)C(=O)N[C@@H](CO)C(=O)N[C@H](C(=O)NC(C)(C)C(=O)N[C@@H](CC(C)C)C(=O)N[C@@H](CC(=O)O)C(=O)N[C@@H](CCCNC(=N)N)C(=O)NC(C)(C)C(=O)N[C@@H](C)C(=O)N[C@@H](CCC(N)=O)C(=O)NC(C)(C)C(=O)N[C@@H](CCCCNC(=O)COCCOCCNC(=O)COCCOCCNC(=O)CC[C@H](NC(=O)CC[C@H](NC(=O)CCCCCCCCCCCCCCCC(=O)O)C(=O)O)C(=O)O)C(=O)N[C@@H](Cc1ccccc1)C(=O)N[C@H](C(=O)N[C@@H](CC(N)=O)C(=O)N[C@@H](Cc1c[nH]c2ccccc12)C(=O)N[C@@H](CC(C)C)C(=O)N[C@@H](CC(C)C)C(=O)N[C@@H](C)C(=O)N[C@@H](CCC(N)=O)C(=O)N[C@@H](CCCNC(=N)N)C(=O)N1CCC[C@H]1C(=O)N[C@@H](CO)C(=O)N[C@@H](CO)C(=O)NCC(=O)N[C@@H](C)C(=O)N1CCC[C@H]1C(=O)N1CCC[C@H]1C(=O)N1CCC[C@H]1C(=O)N[C@@H](CO)C(N)=O)C(C)C)[C@@H](C)CC [Compound 13] (H-[NMeY][Aib]EGTFISDYSI[Aib]LDR[Aib]AQ[Aib]K([AEEA-AEEA-γGlu-γGlu-C17 diacid])FVNWLLAQRPSSGAPPPS-NH2),"fraction unbound at 30 min, 1000 nmol/L",[3]; [8],< 0.002
same,"fraction unbound at 30 min, 1000 nmol/L",[4],< 0.002
same,solubility,"[5]; pH 7.4, aqueous buffer, pH 7.4 Phosphate Buffer - Solubility, 200 mM Phosphate buffer pH 7.4",≥ 30 mg/mL
same,solubility,"[5]; pH 7.4, solubility in phosphate buffer at pH 7.4, 200 mM phosphate buffer pH 7.4",≥ 15 mg/mL
